Where two headings read alike, the source gives them in different places.

Experiment [1] has as its system Pyricularia oryzae. It counts as cell-based. As to conditions: PO, 48 hours.
Experiment [2] has as its system Uromyces phaseoli. Kind of experiment: whole plant or invertebrate. The conditions noted are these: foliar, read-out: Percent Disease Control, foliar, bean rust.
Experiment [3] has as its system Fusarium solani. Kind of experiment: Mycelial growth test. It counts as cell-based. As to conditions: for inhibition at 5 ppm / inhibition at 10 ppm / inhibition at 20 ppm / inhibition at 40 ppm: Fusarium solani, 72 h; for inhibition at 5 ppm / inhibition at 10 ppm / inhibition at 20 ppm: read-out: Percent Fungus Growth Inhibition; for inhibition at 40 ppm: read-out: Percent Fungus Growth Inhibition, PS, 40 ppm, 72 hours.

The test system of experiment [4] is Uromyces phaseoli. Kind of experiment: whole plant or invertebrate. As to conditions: foliar, 24 h, read-out: Percent Disease Control, curative, bean rust.

As a reminder, the inhibition is the change of the read-out against control, counted positive when it falls. Take `O=c1c(Cl)nsnc1Oc1ccc(Cl)c(Cl)c1` [Compound 16, 3-chloro-5-(3,4-dichlorophenoxy)-4H--1,2,6-thiadiazin-4-one]: the “Spore Germination Rating” value in experiment [1] (1.0 ppm), in experiment [1] (2.5 ppm), in experiment [1] (10 ppm) and in experiment [1] (40 ppm) was 0 (0-10) in each case. The pest or weed control at 150 ppm in experiment [2] was determined as 90%; in experiment [4] it was 0%. The inhibition at 5 ppm in experiment [3] (PS, 72 hours) amounted to 53%. In addition, the inhibition at 10 ppm in experiment [3] (PS, 10 ppm, 72 hours) stood at 47%. The inhibition at 20 ppm in experiment [3] (PS, 72 hours) was found to be 47%. Further, the inhibition at 40 ppm in experiment [3] turned out to be 41%.
As to `O=c1c(Cl)nsnc1Oc1ccc(Cl)cc1Cl` [Compound 17, 3-chloro-5-(2,4-dichlorophenoxy)-4H--1,2,6-thiadiazin-4-one], the “Spore Germination Rating” value in experiment [1] (1.0 ppm), in experiment [1] (2.5 ppm), in experiment [1] (10 ppm) and in experiment [1] (40 ppm) was 0 (0-10) in each case. The pest or weed control at 150 ppm in experiment [2] and in experiment [4] was 100% in each case. The inhibition at 5 ppm in experiment [3] (PS, 72 hours) was determined as 50%. Further, the inhibition at 10 ppm in experiment [3] (PS, 10 ppm, 72 hours) is 75%. The inhibition at 20 ppm in experiment [3] (PS, 72 hours) came to 100%. Moreover, the inhibition at 40 ppm in experiment [3] came to 100%.
As to `O=c1c(Cl)nsnc1Oc1c(Cl)cccc1Cl` [Compound 18, 3-chloro-5-(2,6-dichlorophenoxy)-4H--1,2,6-thiadiazin-4-one], the “Spore Germination Rating” value is 4 (80-100) in experiment [1] (1.0 ppm), 2 (40-60) in experiment [1] (2.5 ppm), 0 (0-10) in experiment [1] (10 ppm) and 0 (0-10) in experiment [1] (40 ppm). The pest or weed control at 150 ppm in experiment [2] is 100%; in experiment [4], 0%. Besides, in experiment [3] (PS, 72 hours), the inhibition at 5 ppm is 41%. The inhibition at 10 ppm in experiment [3] (PS, 10 ppm, 72 hours) stood at 50%. Further, in experiment [3] (PS, 72 hours), the inhibition at 20 ppm was determined as 75%. Further, in experiment [3], the inhibition at 40 ppm worked out at 75%.
Take `O=c1c(Cl)nsnc1Oc1cccc(Cl)c1Cl` [Compound 19, 3-chloro-5-(2,3-dichlorophenoxy)-4H--1,2,6-thiadiazin-4-one]: the “Spore Germination Rating” value in experiment [1] (1.0 ppm) is reported as 3 (60-80); in experiment [1] (2.5 ppm), 0 (0-10); in experiment [1] (10 ppm), 0 (0-10); in experiment [1] (40 ppm), 0 (0-10). Also, the pest or weed control at 150 ppm in experiment [2] was found to be 0%; in experiment [4] it was 100%. In experiment [3] (PS, 72 hours), the inhibition at 5 ppm came out at 50%. The inhibition at 10 ppm in experiment [3] (PS, 10 ppm, 72 hours) is 66%. The inhibition at 20 ppm in experiment [3] (PS, 72 hours) is 81%. The inhibition at 40 ppm in experiment [3] turned out to be 100%.
`O=c1c(Cl)nsnc1Oc1cc(Cl)cc(Cl)c1` [Compound 20, 3-chloro-5-(3,5-dichlorophenoxy)-4H--1,2,6-thiadiazin-4-one]: the “Spore Germination Rating” value is listed as 1 (10-40) in experiment [1] (1.0 ppm), 0 (0-10) in experiment [1] (2.5 ppm), 0 (0-10) in experiment [1] (10 ppm) and 0 (0-10) in experiment [1] (40 ppm). Further, the pest or weed control at 150 ppm in experiment [2] was found to be 100%; in experiment [4], 0%. Further, the inhibition at 5 ppm in experiment [3] (PS, 72 hours) came out at 59%. Also, the inhibition at 10 ppm in experiment [3] (PS, 10 ppm, 72 hours) stood at 66%. Further, the inhibition at 20 ppm in experiment [3] (PS, 72 hours) turned out to be 100%. The inhibition at 40 ppm in experiment [3] was determined as 69%.
For the molecule `Cc1cccc(Oc2nsnc(Cl)c2=O)c1` [Compound 21, 3-chloro-5-(3-methylphenoxy)-4H--1,2,6-thiadiazin-4-one], the “Spore Germination Rating” value in experiment [1] (1.0 ppm) was 4 (80-100); in experiment [1] (2.5 ppm), 0 (0-10); in experiment [1] (10 ppm), 0 (0-10); in experiment [1] (40 ppm), 0 (0-10). For the same molecule, the values for the pest or weed control at 150 ppm in experiment [2] and in experiment [4] were 100% and 0%, respectively. In experiment [3] (PS, 72 hours), the inhibition at 5 ppm turned out to be 33%. Besides, the inhibition at 10 ppm in experiment [3] (PS, 10 ppm, 72 hours) worked out at 62%. In experiment [3] (PS, 72 hours), the inhibition at 20 ppm was 58%. Besides, the inhibition at 40 ppm in experiment [3] turned out to be 100%.
`Cc1ccccc1Oc1nsnc(Cl)c1=O` [Compound 22, 3-chloro-5-(2-methylphenoxy)-4H--1,2,6-thiadiazin-4-one]: the “Spore Germination Rating” value in experiment [1] (1.0 ppm) is given as 2 (40-60); in experiment [1] (2.5 ppm) it was 0 (0-10); in experiment [1] (10 ppm) it was 0 (0-10); in experiment [1] (40 ppm), 0 (0-10). The pest or weed control at 150 ppm came out at 100% in experiment [2] and 0% in experiment [4]. For the same molecule, in experiment [3] (PS, 72 hours), the inhibition at 5 ppm is 17%. For the same molecule, the inhibition at 10 ppm in experiment [3] (PS, 10 ppm, 72 hours) was 67%. Besides, the inhibition at 20 ppm in experiment [3] (PS, 72 hours) came to 83%. Moreover, in experiment [3], the inhibition at 40 ppm turned out to be 100%.
`Cc1ccc(Oc2nsnc(Cl)c2=O)c(C)c1` [Compound 23, 3-chloro-5-(2,4-dimethylphenoxy)-4H--1,2,6-thiadiazin-4-one]: the “Spore Germination Rating” value in experiment [1] (1.0 ppm) was 4 (80-100); in experiment [1] (2.5 ppm), 0 (0-10); in experiment [1] (10 ppm), 0 (0-10); in experiment [1] (40 ppm), 0 (0-10). In addition, the values for the pest or weed control at 150 ppm in experiment [2] and in experiment [4] were 100% and 0%, respectively. For the same molecule, the inhibition at 5 ppm in experiment [3] (PS, 72 hours) was found to be 17%. Also, the inhibition at 10 ppm in experiment [3] (PS, 10 ppm, 72 hours) amounted to 33%. The inhibition at 20 ppm in experiment [3] (PS, 72 hours) came to 100%. The inhibition at 40 ppm in experiment [3] was 100%.
As for `Cc1cccc(C)c1Oc1nsnc(Cl)c1=O` [Compound 24, 3-chloro-5-(2,6-dimethylphenoxy)-4H--1,2,6-thiadiazin-4-one], the “Spore Germination Rating” value in experiment [1] (1.0 ppm) is reported as 3 (60-80); in experiment [1] (2.5 ppm) it was 0 (0-10); in experiment [1] (10 ppm) it was 0 (0-10); in experiment [1] (40 ppm), 0 (0-10). Further, the pest or weed control at 150 ppm was 100% in experiment [2] and 0% in experiment [4]. For the same molecule, in experiment [3] (PS, 72 hours), the inhibition at 5 ppm turned out to be 33%. Further, the inhibition at 10 ppm in experiment [3] (PS, 10 ppm, 72 hours) amounted to 83%. In experiment [3] (PS, 72 hours), the inhibition at 20 ppm was found to be 100%. Besides, in experiment [3], the inhibition at 40 ppm amounted to 100%.
Turning to `Cc1cc(C)cc(Oc2nsnc(Cl)c2=O)c1` [Compound 25, 3-chloro-5-(3,5-dimethylphenoxy)-4H--1,2,6-thiadiazin-4-one], the “Spore Germination Rating” value in experiment [1] (1.0 ppm) is given as 3 (60-80); in experiment [1] (2.5 ppm), 0 (0-10); in experiment [1] (10 ppm), 0 (0-10); in experiment [1] (40 ppm) it was 0 (0-10). The pest or weed control at 150 ppm in experiment [2] was 100%; in experiment [4], 0%. In experiment [3] (PS, 72 hours), the inhibition at 5 ppm was 50%. Further, in experiment [3] (PS, 10 ppm, 72 hours), the inhibition at 10 ppm amounted to 100%. In addition, in experiment [3] (PS, 72 hours), the inhibition at 20 ppm came out at 100%. In experiment [3], the inhibition at 40 ppm worked out at 100%.
As for `Nc1ccc(Oc2nsnc(Cl)c2=O)cc1` [Compound 26, 5-(4-aminophenoxy)-3-chloro-4H--1,2,6-thiadiazin-4-one], the “Spore Germination Rating” value in experiment [1] (1.0 ppm) is listed as 4 (80-100); in experiment [1] (2.5 ppm), 2 (40-60); in experiment [1] (10 ppm), 0 (0-10); in experiment [1] (40 ppm), 0 (0-10). The pest or weed control at 150 ppm in experiment [2] and in experiment [4] was 0% in each case. Besides, the inhibition at 5 ppm in experiment [3] (PS, 72 hours) came to 13%. Also, the inhibition at 20 ppm in experiment [3] (PS, 72 hours) is 17%. Moreover, in experiment [3], the inhibition at 40 ppm is 42%. In experiment [3] (PS, 10 ppm, 72 hours), the “Percent Fungus Growth Inhibition” value was 33%.
For the molecule `CNC(=O)Nc1ccc(Oc2nsnc(Cl)c2=O)cc1` [Compound 28, 3-chloro-5-[4-(3-methylureido)-phenoxy]-4H--1,2,6-thiadiazin-4-one], the “Spore Germination Rating” value in experiment [1] (1.0 ppm) is 4 (80-100); in experiment [1] (2.5 ppm), 4 (80-100); in experiment [1] (10 ppm), 4 (80-100); in experiment [1] (40 ppm) it was 1 (10-40). The pest or weed control at 150 ppm in experiment [2] and in experiment [4] was 0% in each case. For the same molecule, the inhibition at 5 ppm in experiment [3] (PS, 72 hours) stood at 0%. In addition, the inhibition at 10 ppm in experiment [3] (PS, 10 ppm, 72 hours) came out at 17%. In experiment [3] (PS, 72 hours), the inhibition at 20 ppm turned out to be 17%. Further, the inhibition at 40 ppm in experiment [3] came out at 13%.
As to `O=C(Nc1ccccc1)Nc1ccc(Oc2nsnc(Cl)c2=O)cc1` [Compound 29, 3-chloro-5-[4-(3-phenylureido)-phenoxy]-4H--1,2,6-thiadiazin-4-one], the “Spore Germination Rating” value in experiment [1] (1.0 ppm) is on record as 4 (80-100); in experiment [1] (2.5 ppm) it was 4 (80-100); in experiment [1] (10 ppm), 4 (80-100); in experiment [1] (40 ppm) it was 2 (40-60). The pest or weed control at 150 ppm in experiment [2] and in experiment [4] was 0% each time. In addition, in experiment [3] (PS, 72 hours), the inhibition at 5 ppm was found to be 0%. In addition, in experiment [3] (PS, 10 ppm, 72 hours), the inhibition at 10 ppm is 0%. Further, the inhibition at 20 ppm in experiment [3] (PS, 72 hours) amounted to 0%. For the same molecule, in experiment [3], the inhibition at 40 ppm came to 13%.

(Values after patent US4450269A, “Mono-5-substituted-3-chloro-4H-1,2,6-thiadiazin-4-one antifungal agents” (FMC Corporation, priority 1980, dated 1984).)
